Measured values taken from patent US12391646B2, “Using adiponectin receptor agonists to treat inflammation and bone diseases in diabetes” (Trustees of Tufts College, priority 2020, dated 2025).

Test system: NF-κB and p38 MAPK signaling pathways, APPL1
Test: Western blotting of signaling proteins in Raw264.7 cells
Assay type: cell-based
Conditions: for densitometry value p-IRAK4 (FIG. 5a) / densitometry value p-P38 (FIG. 5a) / densitometry value APPL1 (FIG. 5e), without LPS / densitometry value APPL1 (FIG. 5e), with LPS: relative to first lane 1.00, lane order inferred; for densitometry value p-IRAK4 (FIG. 5a) / densitometry value p-P38 (FIG. 5a): APR 20 μM or AdipoAI 5 μM 24 h, LPS 30 min; for densitometry value APPL1 (FIG. 5e), without LPS: APR 20 μM; for densitometry value APPL1 (FIG. 5e), with LPS: LPS alone 0.32
Procedure: FIG. 5 AdipoAI inhibition of NF-κB and p38 MAPK signaling pathways is dependent of AdipoR1/APPL1 axis in LPS-induced macrophages. (a) Impact of AdipoAI in the phosphorylation of related signaling proteins by western blotting. Raw264.7 cells were pretreated with APR (20 μM) or AdipoAI (5 μM) for 24 h followed by incubation with LPS (100 ng/mL) for an additional 30 min. Representative images are shown, and quantitative analysis of protein expression was performed by densitometric analysis (see lower panel), densitometry values—p-IRAK4: 1.00, 0.13, 0.09; p-P38: 1.00, 0.76, 0.26. (b) Expression of p65 protein in cytoplasmic and nuclear extracts of Raw264.7 cells. Representative images of p65 expression are presented along with Lamin B1 and β-actin expression which were used as internal loading controls. Quantitative analysis of protein expression was performed by densitometric analysis (lower panel), Densitometry values-p-P65: 0.53, 1.00, 0.38, 0.76; P65: 0.32, 1.00, 0.21, 0.53. (c) RAW 264.7 cells were transfected with siRNA targeting cither AdipoR1, AdipoR2, APPL1, APPL2 or scrambled control siRNA for 24 h, followed by stimulation with AdipoAI or APR for 24 h, then incubation with LPS for additional 6 h. Transfection efficiency of siRNA and mRNA expression levels of IL-6, IL-1β were measured by qPCR and normalized with GAPDH mRNA levels. Data were expressed as the mean±SEM at five biological independent experiments. One-way ANOVA test for multiple-group comparisons, *P<0.05, significant differences between each indicated group. ns, not significant. (d) RAW 264.7 cells were stimulated with LPS, AdipoAI, or APR for different times and proteins levels determined by western blotting. Representative western blotting images are shown along with β-actin used as an internal loading control and densitometric analysis. Densitometry values-Panel 1: APPL1: 1.00, 0.48, 0.44; Panel 2: APPL1: 1.00, 2.17, 5.38; Panel 3: APPL1: 1.00, 2.11, 4.82. (e) Raw264.7 cells were pretreated with APR (20 μM) or AdipoAI (5 μM) for 24 h followed by incubation with LPS (100 ng/mL) for additional 6 h for the measurement of related proteins by WB. Representative images are shown along with β-actin as an internal loading control and densitometric analysis. Densitometry values—APPL1: 1.00, 1.53, 1.58, 0.32, 0.45, 0.67. (f) Raw264.7 cells and (g) BMMs were transfected with siRNA targeting APPL1 or scrambled control siRNA for 24 h, followed by stimulation with AdipoAI for 24 h, then incubation with LPS for additional 6 h for western blotting analysis. Densitometry values for f—APPL1: 1.00, 0.43; p-IRAK4: 1.00, 1.31; p-P-38:1.00, 1.47. Densitometry values for g—APPL1: 1.00, 0.38; p-IRAK4: 1.00, 1.30; p-P38: 1.00, 1.67. Representative images are shown along with β-actin as an internal loading control, and densitometric analysis. No statistical analysis of western blotting for n=3.
Total cellular extracts were prepared using RIPA Lysis and Extraction Buffer containing three Protease Inhibitors (Thermo Scientific). Cytoplasmic and nuclear extracts were purified using NE-PER™ Nuclear and Cytoplasmic Extraction Reagents (Thermo Scientific). Experimental details of western blotting are in accordance with British Journal of Pharmacology guidelines (Alexander et al., 2018) and western blot analyses were performed as previously described (J. Zhang et al., 2017). Briefly, the total protein concentration was quantified using BCA kit (P1511; Applygen Technologies Inc., Beijing, China). The samples were separated by SDS-PAGE and electrophoretically transferred to a polyvinylidene difluoride membrane (Merck Millipore, Darmstadt, Germany). The membranes were blocked with 5% skim milk for 1 to 2 hr at room temperature. […]

[1] = LPS-induced Raw264.7 cells, AdipoAI 5 μM

SMILES	APPL1 protein expression (Raw264.7 cells)	densitometry value p-IRAK4 (FIG. 5a)	densitometry value p-P38 (FIG. 5a)	densitometry value APPL1 (FIG. 5e), without LPS (AdipoAI 5 μM)	densitometry value APPL1 (FIG. 5e), with LPS	phosphorylation of AKT, JNK or ERK (LPS-induced Raw264.7 cells)	decrease of phosphorylation of IRAK4 [1] [%]	decrease of phosphorylation of p38 [1] [%]	AdipoR1 or AdipoR2 protein levels (Raw264.7 cells)	LPS-induced p65 phosphorylation and nuclear translocation (Raw264.7 cells)
O=C(COc1ccc(C(=O)c2ccccc2)cc1)NC1CCN(Cc2ccccc2)CC1 [AdipoRon, reference compound]	increased	0.13	0.76	1.53	0.45	–	–	–	–	–
COc1ccc(CN2CCC(NC(=O)COc3ccc(C(=O)c4ccc(Cl)cc4)cc3)CC2)cc1 [Compound 3]	increased APPL1 expression	0.09	0.26	1.58	0.67	did not significantly alter phosphorylation of AKT, JNK or ERK	70	70	did not influence AdipoR1 or AdipoR2 protein levels	suppressed LPS-induced p65 phosphorylation and nuclear translocation
